Here are results for seven molecules from ChEMBL document CHEMBL1201862, “PubChem BioAssay data set” (2004).

Molecules are shown by their SMILES.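 Dose response: 5 concentrations. Exposure: 48 h. Format: 96-well plates. Endpoint: linear interpolation; highest concentration if not reached. GI50 marks 50% less growth.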 Calls of active or inactive are those of the source. Rule as the data show it: active = GI50 up to about 1.1 µM and inactive = higher.

Some test systems named below: MCF7; CCRF-CEM; A549; HOP-62; Hs-578T; T47D; SK-MEL-2; HT-29; SNB-75; EKVX; U-251; MOLT-4; NCI/ADR-RES; LOX IMVI; SN12C; SK-MEL-28; SW-620; SK-OV-3; BT-549; A498.
Test in all cases: NCI-60 cell line screen, 48 h

Consider `NC1N=C(c2ccc(Cl)cc2)C2=C(N1)c1ccccc1CC2` (stereo not given), for which the GI50 in the experiment with MCF7 was 6.55 µM (inactive); in the experiment on CCRF-CEM it was 3.93 µM (inactive); in the experiment with A549 it was 20.3 µM (inactive); in the experiment on HOP-62 it was > 40.6 µM (inactive); in the experiment with Hs-578T, 8.71 µM (inactive); in the experiment on T47D it was 10.4 µM (inactive). The GI50 in the experiment on SK-MEL-2 was 9.08 µM (inactive); with HT-29 it was 3.16 µM (inactive); in the experiment on SNB-75, 1.71 µM (inactive); with EKVX, 14.2 µM (inactive); in the experiment with U-251, 25.6 µM (inactive); with MOLT-4, 3.17 µM (inactive). The GI50 in the experiment with NCI/ADR-RES was 13 µM (inactive); with LOX IMVI, 4.13 µM (inactive); in the experiment on SN12C, 19.9 µM (inactive); in the experiment on SK-MEL-28 it was 64.7 µM (inactive); with SW-620 it was 10.8 µM (inactive); with SK-OV-3, > 100 µM (inactive). Further, the GI50 in the experiment on BT-549 was > 100 µM (inactive); in the experiment with A498 it was 49.5 µM (inactive).

As to `C=C1[C@@H](C)[C@H]2[C@H](Cc3ccccc3)NC(=O)[C@]23OC(=O)/C=C/[C@H](O)CCC[C@@H](C)C/C=C/[C@H]3[C@@H]1O`, the GI50 was 16.6 µM (inactive) in the experiment with MCF7; 2.37 µM (inactive) in the experiment on CCRF-CEM; 2.85 µM (inactive) in the experiment with A549; 0.605 µM (active) with HOP-62; 5.89 µM (inactive) with Hs-578T; 2.92 µM (inactive) in the experiment on T47D. In addition, the GI50 was 24.2 µM (inactive) in the experiment with SK-MEL-2; 5.82 µM (inactive) in the experiment on HT-29; 0.0748 µM (active) with SNB-75; 10.7 µM (inactive) in the experiment on EKVX; 2.08 µM (inactive) in the experiment on U-251; 4.04 µM (inactive) in the experiment with MOLT-4. In addition, the GI50 was 20.3 µM (inactive) in the experiment on NCI/ADR-RES; 0.486 µM (active) in the experiment on LOX IMVI; 3.87 µM (inactive) in the experiment with SN12C; 12.8 µM (inactive) with SK-MEL-28; 23.2 µM (inactive) in the experiment on SW-620; 32.6 µM (inactive) in the experiment on SK-OV-3. Also, the GI50 was 15.4 µM (inactive) in the experiment on BT-549 and 1.83 µM (inactive) in the experiment with A498.

Consider `O=C(O)CN1CCNCCN(CC(=O)O)CCN(CC(=O)O)CCNCC1`, for which the GI50 in the experiment with MCF7 was 69.8 µM (inactive); in the experiment with CCRF-CEM it was > 100 µM (inactive); with A549, > 100 µM (inactive); in the experiment with HOP-62, > 100 µM (inactive); in the experiment on Hs-578T, > 100 µM (inactive); in the experiment with T47D, > 100 µM (inactive). Besides, the GI50 is > 100 µM (inactive) in the experiment on SK-MEL-2; 26.7 µM (inactive) in the experiment with HT-29; 63.4 µM (inactive) in the experiment on SNB-75; > 100 µM (inactive) in the experiment on EKVX; > 100 µM (inactive) in the experiment with U-251; 83.6 µM (inactive) with MOLT-4. The GI50 with NCI/ADR-RES is 23.3 µM (inactive); in the experiment with LOX IMVI, 91.2 µM (inactive); with SN12C, > 100 µM (inactive); in the experiment with SK-MEL-28 it was > 100 µM (inactive); in the experiment on SW-620, 41.5 µM (inactive); in the experiment on SK-OV-3, > 100 µM (inactive). The GI50 in the experiment with BT-549 was > 100 µM (inactive); in the experiment with A498, 71.9 µM (inactive).

On to `COc1ccc(Cc2ccc3nc(O)cc(C)c3c2)cc1S(=O)(=O)O`, for which the GI50 in the experiment on MCF7, with CCRF-CEM, in the experiment with A549, in the experiment on HOP-62, in the experiment on Hs-578T and in the experiment with T47D was > 100 µM (inactive) in each case. In addition, the GI50 with SK-MEL-2, in the experiment with HT-29, in the experiment on SNB-75, in the experiment with EKVX, with U-251 and in the experiment on MOLT-4 was > 100 µM (inactive) each time. The GI50 in the experiment on NCI/ADR-RES, in the experiment on LOX IMVI, with SN12C, with SK-MEL-28, with SW-620 and in the experiment with SK-OV-3 was > 100 µM (inactive) in each case. The GI50 in the experiment with BT-549 and in the experiment with A498 was > 100 µM (inactive) each time.

As to `Cc1c(-c2cnccn2)ssc1=S` [OLTIPRAZ], the GI50 with MCF7 was > 100 µM (inactive); in the experiment with CCRF-CEM, 60.3 µM (inactive); with A549, 98.9 µM (inactive); with HOP-62, 47 µM (inactive); in the experiment on Hs-578T, 34.5 µM (inactive); with T47D, 67.6 µM (inactive). Moreover, the GI50 is 53.3 µM (inactive) in the experiment on SK-MEL-2; > 100 µM (inactive) in the experiment with HT-29; 18.5 µM (inactive) in the experiment with SNB-75; 33.2 µM (inactive) with EKVX; 46 µM (inactive) in the experiment on U-251; > 96.4 µM (inactive) in the experiment on MOLT-4. Moreover, the GI50 was > 100 µM (inactive) in the experiment with NCI/ADR-RES; 63 µM (inactive) with LOX IMVI; > 100 µM (inactive) with SN12C; > 100 µM (inactive) with SK-MEL-28; > 100 µM (inactive) in the experiment with SW-620; 35.9 µM (inactive) with SK-OV-3. The values for the GI50 in the experiment on BT-549 and in the experiment with A498 were 22 µM (inactive) and 34.8 µM (inactive), respectively.

For `N=C(N)NS(=O)(=O)c1ccc(NC(=O)c2ccc3nc4ccccc4c(Nc4ccc(S(=O)(=O)N=C(N)N)cc4)c3c2)cc1`, the GI50 in the experiment with MCF7, in the experiment with CCRF-CEM, in the experiment on A549, with HOP-62, with Hs-578T and in the experiment on T47D was > 100 µM (inactive) each time. In addition, the GI50 in the experiment with SK-MEL-2, in the experiment on HT-29, in the experiment on SNB-75, with EKVX, in the experiment on U-251 and in the experiment on MOLT-4 was > 100 µM (inactive) in each case. The GI50 with NCI/ADR-RES was > 100 µM (inactive); in the experiment on LOX IMVI, 61.8 µM (inactive); in the experiment with SN12C, > 100 µM (inactive); in the experiment with SK-MEL-28 it was > 100 µM (inactive); in the experiment with SW-620, > 100 µM (inactive); with SK-OV-3, > 100 µM (inactive). Besides, the GI50 in the experiment with BT-549 and with A498 was > 100 µM (inactive) in each case.

Regarding `Cc1cc(S(=O)(=O)Nc2nc(Nc3ccc4ccccc4c3)n[nH]2)c(S)cc1Cl`, the GI50 in the experiment on MCF7 is 74.8 µM (inactive); in the experiment on CCRF-CEM it was > 100 µM (inactive); in the experiment with A549, 55.7 µM (inactive); in the experiment with HOP-62, 28.1 µM (inactive); in the experiment with Hs-578T, 22.2 µM (inactive); in the experiment with T47D, 63.7 µM (inactive). The GI50 in the experiment on SK-MEL-2 was 24 µM (inactive); with HT-29 it was > 100 µM (inactive); with SNB-75, 43.3 µM (inactive); in the experiment with EKVX, > 100 µM (inactive); in the experiment with U-251, 39.9 µM (inactive); in the experiment with MOLT-4 it was > 100 µM (inactive). In addition, the GI50 in the experiment on NCI/ADR-RES was > 100 µM (inactive); with LOX IMVI it was 45.6 µM (inactive); in the experiment on SN12C, 48.2 µM (inactive); with SK-MEL-28 it was > 100 µM (inactive); in the experiment on SW-620, 44.7 µM (inactive); in the experiment with SK-OV-3 it was 46.2 µM (inactive). In addition, the GI50 is 75.9 µM (inactive) with BT-549 and 26.4 µM (inactive) with A498.
